We go through two compounds from patent US8729047B2, “Compositions for inhibiting redox-sensitive GTPases” (Board of Regents, The University of Texas System, priority 2010, dated 2014).

Molecules are shown by their SMILES. Where two headings read alike, the source gives them in different places.

One assay has as its target Rac1 (Homo sapiens, UniProt P63000). Also on record: made in house; host or cells: E. coli. The conditions noted are these: determined previously; read-out: trueKD GDP; cited from earlier work.
For a further assay, the target named is RhoC (Homo sapiens, UniProt P08134). The assay is described as follows: [3H]GDP displacement of 6-TGDP from .NO2-treated 6-TGDP-loaded GTPase with/without DTT (FIG. 13B). Format: binding. More on the design: made in house; host or cells: E. coli. The method, then: (§1) FIG. 13. Guanine nucleotide exchange of small GTPases with 6-TGDP. (A) To monitor 6-TGDP-mediated GTPase GDP dissociation, [^3H]GDP-loaded GTPase (1 μM) was incubated with 6-TGDP (0-2000 μM) for 1 h. (B) To monitor GTPase 6-TGDP dissociation by GDP (0-2000 μM) in the presence and absence of dithiothreitol (DTT), 6-TGDP-loaded GTPase (˜1 μM) was treated with .NO2 (˜3 μM) under anaerobic conditions and was incubated with various concentrations of [^3H]GDP (0-2000 μM) in the presence and absence of DTT (10 mM) for 1 h. For all assays, aliquots were withdrawn and spotted onto nitrocellulose filters. The filters were then washed three times with an assay buffer, and radioactivity was determined using a Beckman-Coulter scintillation counter. The resultant radioactivity (dpm) values associated with GTPase-bound [^3H]GDP were converted into the fraction of mol nucleotide per mol total GTPase. The data presented represent mean and standard error values from triplicate measurements. The apparent dissociation constants (appKD values) of GTPase 6-TGDP association ([^3H]GDP dissociation, A); and 6-TGDP dissociation ([3H]GDP association, B) were obtained by fitting the data to a simple dissociation and association, respectively. (A) The ^appKD values of Ras, RhoC, RhoA and Rac1 for 6-TGDP, are, respectively, 2300, 230, 224, and 245 μM [6-TGDP]. (B) The appKD values of RhoC with and without DTT are, respectively, 560, and 1000 μM [[^3H]GDP], whereas the ^appKD values of Ras with and without DTT are 530, and 520 μM [[^3H]GDP], respectively. The standard errors of each ^appKD value are less than 10% of their given values, and regression values associated with the fit were r^2>0.9560.
The ^appKD [3H]GDP was converted into ^trueKD [3H]GDP by using a compensation equation, ^trueKD [3H]GDP=^appKD [3H]GDP/(1+[6-TGDP]/^trueKD GDP) (Segel, I. H. (1993) Enzyme kinetics, A Wiley-Interscience publication, New York) (see above)). The calculated ^trueKD [3H]GDP values of RhoC in the presence and absence of DTT were estimated to be 516 μM and 923 μM, respectively. […] Treatment with DTT, a reducing agent, disrupts the disulfide bond between RhoC and 6-TGDP, liberating 6-TGDP from RhoC, and thereby permitting [^3H]GDP to bind to RhoC.

For the next assay, the target named is T1, RhoA (Homo sapiens, UniProt P61586).
T1 construct: made in house; host or cells: E. coli
Description: Guanine nucleotide exchange of [3H]GDP-loaded GTPase with 6-TGDP (FIG. 13A). It counts as binding. The method, then:
as §1, with “(A) The ^appKD values of Ras, RhoC, RhoA and Rac1 for 6-TGDP, are, respectively, 2300, 230, 224, and 245 μM [6-TGDP]. (B) The appKD values of RhoC with and without DTT are, respectively, 560, and 1000 μM [[^3H]GDP], whereas the ^appKD values of Ras with and without DTT are 530, and 520 μM [[^3H]GDP], respectively. The standard errors of each ^appKD value are less than 10% of their given values, and regression values associated with the fit were r^2>0.9560.” left out
(§2) A kinetic assay method using radiolabeled GDP ([^3H]GDP) was established. The apparent dissociation constants (^appKD 6-TGDP) of Rho GTPases (including RhoA, Cdc42, and Rac1/2/3) and Ras with 6-TGDP were determined (FIG. 13). […]
(§3) The true dissociation constant (^trueKD 6-TGDP) of Ras, RhoC, RhoA and Rac1 for 6-TGDP was then calculated to be ˜20.7 pM, 212 μM, 208 μM, and 158 μM [6-TGDP] by using a compensation equation, ^trueKD 6-TGDP=^appKD 6-TGDP/(1+[GDP]/^trueKD GDP) (95), in conjunction with the values given [(^appKD 6-TGDP of Ras, RhoC, RhoA, and Rac1=2300, 230, 224, and 245 μM (FIG. 13) and ^trueKD GDP=9 pM, 12 μM, 13 μM and 1.8 μM, respectively. The ^trueKD GDP of Ras, RhoA and Rac1 was determined previously (Lenzen et al. Biochemistry 37, 7420-7430 (1998); Heo et al. Biochemistry 44, 6573-6585 (2005)) and the ^trueKD GDP of RhoC was further determined. […]

The next assay addresses Ras (Homo sapiens, UniProt P01112). The description is as above. It counts as binding. The conditions noted are these: [3H]GDP-loaded GTPase 1 μM, 6-TGDP 0-2000 μM, 1 h, read-out: appKD for 6-TGDP. As for the experimental part: as §1, with “(A) The ^appKD values of Ras, RhoC, RhoA and Rac1 for 6-TGDP, are, respectively, 2300, 230, 224, and 245 μM [6-TGDP]. (B) The appKD values of RhoC with and without DTT are, respectively, 560, and 1000 μM [[^3H]GDP], whereas the ^appKD values of Ras with and without DTT are 530, and 520 μM [[^3H]GDP], respectively. The standard errors of each ^appKD value are less than 10% of their given values, and regression values associated with the fit were r^2>0.9560.” left out
as §2, §3

Sequence of RhoC (P08134 whole entry): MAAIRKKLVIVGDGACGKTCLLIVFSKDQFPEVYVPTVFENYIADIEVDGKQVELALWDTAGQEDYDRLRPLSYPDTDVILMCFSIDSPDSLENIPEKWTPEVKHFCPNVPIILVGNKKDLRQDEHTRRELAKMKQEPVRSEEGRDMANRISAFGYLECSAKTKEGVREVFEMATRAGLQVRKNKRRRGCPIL
T1 sequence (P61586 whole entry, species assumed): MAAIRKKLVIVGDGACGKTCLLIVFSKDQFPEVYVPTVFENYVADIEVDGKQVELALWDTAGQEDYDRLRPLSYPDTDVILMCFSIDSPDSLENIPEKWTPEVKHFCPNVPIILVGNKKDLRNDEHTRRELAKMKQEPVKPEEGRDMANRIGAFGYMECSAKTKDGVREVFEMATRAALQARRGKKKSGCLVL
Sequence of Ras (P01112 whole entry): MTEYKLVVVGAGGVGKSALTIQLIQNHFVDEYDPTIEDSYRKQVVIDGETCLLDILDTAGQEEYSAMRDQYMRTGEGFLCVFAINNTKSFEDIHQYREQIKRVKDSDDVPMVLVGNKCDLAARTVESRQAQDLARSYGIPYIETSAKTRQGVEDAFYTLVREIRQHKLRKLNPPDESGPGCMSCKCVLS

For `Nc1nc2c(ncn2[C@@H]2O[C@H](COP(=O)(O)OP(=O)(O)O)[C@@H](O)[C@H]2O)c(=O)[nH]1` [GDP], the Kd on Rac1 is 1.8 µM; at RhoC (absence of DTT, calculated by compensation equation, read-out: trueKD [3H]GDP), 923 µM; at RhoC (presence of DTT, calculated by compensation equation, read-out: trueKD [3H]GDP), 516 µM; at RhoC (with DTT 10 mM, 6-TGDP-loaded GTPase ~1 μM treated with .NO2 ~3 μM, anaerobic, 1 h, read-out: appKD for [3H]GDP (6-TGDP dissociation)) it was 560 µM; at RhoC (without DTT, 6-TGDP-loaded GTPase ~1 μM treated with .NO2 ~3 μM, anaerobic, 1 h, read-out: appKD for [3H]GDP (6-TGDP dissociation)), 1000 µM.

Consider `Nc1nc2c(ncn2[C@@H]2O[C@H](COP(=O)(O)OP(=O)(O)O)[C@@H](O)[C@H]2O)c(=S)[nH]1` [6-TGDP, 6-thioguanosine diphosphate], for which the Kd on RhoA ([3H]GDP-loaded GTPase 1 μM, 6-TGDP 0-2000 μM, 1 h, FIG. 13A, read-out: appKD for 6-TGDP) is 224 µM; on RhoA (calculated by compensation equation from appKD 6-TGDP and trueKD GDP, read-out: trueKD 6-TGDP) it was 208 µM; on Ras it was 2300 µM.
